Source: BindingDB's records for doi:10.1021/jm030505a (Abbott Laboratories, 2004)

How the values were obtained:
[1] = In vitro effective concentration tested on HEK293 cells co-transfected with ferret Dopamine receptor D4 using FLIPR assay
[2] = In vitro effective concentration tested on HEK293 cells co-transfected with ferret Dopamine receptor D2 using FLIPR assay

SMILES	EC50 [1] [nM]	EC50 [2] [nM]
NCCc1ccc(O)c(O)c1	2.7	
c1ccc(N2CCN(Cc3nc4ccccc4[nH]3)CC2)nc1 [2-((4-(pyridin-2-yl)piperazin-1-yl)methyl)-1H-benzo[d]imidazole]	23.2	
Fc1ccc2[nH]c(CN3CCN(c4ccccn4)CC3)cc2c1 [5-Fluoro-2-(4-pyridin-2-yl-piperazin-1-ylmethyl)-1H-indole]	22	527
CN1CCc2cccc3c2[C@H]1Cc1ccc(O)c(O)c1-3 [APOKYN]	1.5	
